Experimental data reported in patent US6503882B2, “Treatment of HIV” (Trustees of Tufts College, priority 1997, dated 2003).

Experiments:
[1] = test system: PBMC from HIV-infected patients; experiment: Proliferation of PBMC from HIV-infected individuals in vitro, 3H thymidine incorporation; type: cell-based, human; settings: for stimulation of proliferation (incorporation of 3H thymidine, cpm): very low doses, FIG. 1
Description: Peripheral blood mononuclear cells (PBMC) were obtained by standard methods from HIV-infected individuals, and from uninfected individuals. Varying dosages of KBP or VBP were contacted with the PBMC in vitro, and stimulation of proliferation was measured by incorporation of ^3H thymidine (cpm).

[2] = relatively low doses (10^−7M), FIG. 2

Structure (SMILES) | proliferation of PBMC of HIV-infected patients ([1]; higher doses (10^−4M), FIG. 2) | proliferation of PBMC of HIV-infected patients [1, 2] | stimulation of proliferation (incorporation of 3H thymidine, cpm) [1] | stimulation of PBMC of HIV-infected patients ([1]; concentrations of 10^−6, FIG. 2) | cytotoxicity (T-cells) | cytotoxicity to T-cells (T-cells) | toxicity observed in vitro (T-cells)
NCCCC[C@H](N)C(=O)N1CCC[C@H]1B(O)O [Lys-boroPro] | did not have this effect | caused proliferation | stimulated proliferation | – | – | – | –
CC(C)[C@H](N)C(=O)N1CCC[C@H]1B(O)O [Val-boroPro] | did not have this effect | caused proliferation | stimulated proliferation | there was stimulation | approximately 50% | highly cytotoxic | greater than 80%
